Source: PubChem BioAssay (NCI)
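A five-concentration, 48-hour dose response in 96-well plates underlies each endpoint, interpolated linearly between surrounding concentrations. At the GI50, growth is halved. TGI: total growth inhibition.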

How the values were obtained:
Assay in all cases: growth of human tumour cells (NCI), 48 h
NCI-H460 lung = test system: NCI-H460 lung
MDA-MB-231 breast = test system: MDA-MB-231 breast
U251 CNS = test system: U251 CNS
MOLT-4 leukemia = test system: MOLT-4 leukemia
KM12 colon = test system: KM12 colon
COLO 205 colon = test system: COLO 205 colon
RXF 393 renal = test system: RXF 393 renal
SW-620 colon = test system: SW-620 colon
EKVX NSCLC = test system: EKVX NSCLC
TK-10 renal = test system: TK-10 renal

Compound | TGI (NCI-H460 lung) [µM] | TGI (MDA-MB-231 breast) [µM] | TGI (U251 CNS) [µM] | TGI (MOLT-4 leukemia) [µM] | TGI (KM12 colon) [µM] | TGI (COLO 205 colon) [µM] | TGI (RXF 393 renal) [µM] | TGI (SW-620 colon) [µM] | TGI (EKVX NSCLC) [µM] | TGI (TK-10 renal) [µM] | GI50 (NCI-H460 lung) [µM] | GI50 (MDA-MB-231 breast) [µM] | GI50 (U251 CNS) [µM] | GI50 (MOLT-4 leukemia) [µM] | GI50 (KM12 colon) [µM] | GI50 (COLO 205 colon) [µM] | GI50 (RXF 393 renal) [µM] | GI50 (SW-620 colon) [µM] | GI50 (EKVX NSCLC) [µM] | GI50 (TK-10 renal) [µM]
Cc1nnc(-n2c(O)cc(=O)n(-c3ccccc3)c2=S)nc1/C=C/c1ccc(N(C)C)cc1 | > 54.8 | > 55.7 | > 46.4 | > 100 | 21 | 21.2 | > 58.5 | > 52.9 | > 100 | > 56.5 |  |  |  |  |  |  |  |  |  | 
CCN1CCC(O)(c2ccc(Oc3ccc(C)cc3)cc2)C(C(=O)c2ccc(Oc3ccc(C)cc3)cc2)C1 (stereo not given) | 13.8 | 20.4 | 23.7 | 69.1 | 17.8 | 26.1 | 16.2 | 27.7 | 29 | 20.8 |  |  |  |  |  |  |  |  |  | 
C=C(C(=O)OC)c1cc2ccccc2n1S(=O)(=O)c1ccccc1 | 8.23 | 6.16 | 5.12 | > 24 | 5.99 | 3.82 | 2.54 | 4.63 | 37.7 | 3.91 |  |  |  |  |  |  |  |  |  | 
Oc1ccc(C#CCOc2ccccc2)cc1CNCCN(Cc1ccccn1)Cc1ccccn1 | 2.38 | 2.96 | 5.16 | 5.56 | 2.91 | 9.74 | 2.96 | 4.89 | 3.33 | 3.06 | 0.538 | 1.38 | 0.668 | 2 | 1.28 | 2.8 | 1.49 | 1.86 | 1.24 | 1.22
S=C(Nc1ccccn1)Nc1ccccc1Cl | > 100 | > 100 | > 100 | > 100 | > 83.4 | > 100 | > 100 | > 100 | > 55.9 | > 100 |  |  |  |  |  |  |  |  |  | 
CC(=O)OCC1=C(C)C[C@H]([C@@H](COC(C)=O)C2CCC3C4C[C@H]5O[C@]56CC=CC(=O)[C@]6(C)C4CC[C@@]32C)OC1=O (stereo not given in full) | 2.91 | 1.91 | 1.05 | 0.233 | 0.593 | 1 | 1.12 | 0.322 | 1.36 | 19.2 |  |  |  |  |  |  |  |  |  | 
C=CCN(c1cc(OC)c2[nH]cc(C)c2c1[N+](=O)[O-])S(C)(=O)=O | > 100 | > 100 | > 100 | > 100 | > 100 | > 100 | > 100 | > 100 | > 100 | > 100 |  |  |  |  |  |  |  |  |  | 
Nc1ccc(Oc2ccc(C34CC5CC6C3CC3CC4C(C5)C6(c4ccc(Oc5ccc(N)c(O)c5)cc4)C3)cc2)cc1O | > 36.1 | 14.9 | 13.6 | 12.9 | 47.8 | 2.85 | 27 | > 54.8 | 22.2 | 19 |  |  |  |  |  |  |  |  |  | 
Oc1cccc(-c2cn3cc(C(F)(F)F)ccc3n2)c1 | > 100 | > 100 | > 100 | 40.1 | > 100 | > 100 | 50.2 | > 100 | 70.9 | 73.3 |  |  |  |  |  |  |  |  |  | 
CC(=O)/C=C(\O)c1[nH]c(C(=O)O)cc1C1CCN(Cc2ccccc2)C1=O (stereo not given) | 32.3 | > 100 | > 100 | 53.9 | > 100 | 42.9 | 30.2 | > 100 | 60.6 | > 100 |  |  |  |  |  |  |  |  |  | 
CC(C)C1CC[C@H](C)C[C@@H]1OC(=O)C(C(=O)O[C@H]1C[C@@H](C)CCC1C(C)C)C(O)[C@@H]1OC(C)(C)O[C@H]1C1COC(C)(C)O1 (stereo not given in full) | 32.1 | 36.2 | 27.2 | 42.8 | 31.6 | 28.2 | 28.9 | 35.7 | 41.8 | 37.1 |  |  |  |  |  |  |  |  |  | 
COc1ccccc1NC(=O)O/N=C(/Cl)C(C)C | 37.5 | 18.3 | 30.6 | 4.5 | 39.3 | 5.09 | 28.4 | 3.39 | 29.6 | 26.5 |  |  |  |  |  |  |  |  |  | 
CC1(C)CC2(C)CC1CC2NC(=O)CCN1CCOCC1 (stereo not given) | > 100 | > 100 | > 100 | > 100 | > 100 | > 100 | > 100 | > 100 | > 100 | > 100 |  |  |  |  |  |  |  |  |  | 
O=C(N/N=C\c1ccccc1)Nc1cccc2ccccc12 | > 100 | > 100 | > 100 | > 100 | > 100 | > 100 | > 100 | > 100 | > 100 | > 100 |  |  |  |  |  |  |  |  |  | 
COc1cc2c(cc1OC)-c1cc3cc(OC)c(OC)cc3c(=O)n1CC2 | > 100 | > 70.4 | > 100 | > 100 | > 100 | > 100 | > 69.8 | > 100 | > 100 | > 100 |  |  |  |  |  |  |  |  |  | 
Clc1nc(Cl)c(CBr)c(Cl)n1 | 18.5 | 4.04 | 14.6 | > 23 | 7.87 | 20.9 | 21.4 | 3.99 | 48.9 | 16.9 |  |  |  |  |  |  |  |  |  | 
Clc1ncc(Cl)c(Cl)n1 | > 100 | 7.82 | 11.2 | 4.31 | 22.9 | 3.3 | 5.46 | 2.94 | 30.3 | 23.1 |  |  |  |  |  |  |  |  |  | 
N=c1c2c(=S)n(-c3ccccc3)c(=S)n(-c3ccccc3)c2nc(SCCN2CCOCC2)n1-c1ccccc1 | 5.96 | 4.73 | 3.93 | 3.75 | 6.09 | 3.66 | 3.55 | 3.96 | 9.58 | 3.1 |  |  |  |  |  |  |  |  |  | 
